Inconclusive results are not listed.

The assay has as its system C2C12 myotubes + simvastatin, ATP luminescence, 48 h. Description: rescue of simvastatin myotoxicity in C2C12 – cell-based, differentiated C2C12, luminescence, dry powder, dose response (AID 743336).
For the molecule `N#C[C@@H]1[C@@H](c2ccc(C#CC3CCCC3)cc2)[C@H](CO)N1S(=O)(=O)c1ccccc1`, the AC40 was 20 µM.

For `C[C@@H]1CN([C@H](C)CO)C(=O)Cc2cc(NS(=O)(=O)c3ccc(Cl)cc3)ccc2O[C@H]1CN(C)Cc1ccccc1`, the AC40 is 15.3 µM. In the case of `Cc1noc(C)c1S(=O)(=O)Nc1ccc2c(c1)CC(=O)N([C@H](C)CO)C[C@H](C)[C@@H](CN(C)Cc1ccc(C(F)(F)F)cc1)O2` it was 16 µM; in that of `COc1ccc(S(=O)(=O)Nc2cccc3c2O[C@H](CN(C)C(=O)Nc2ccc(F)cc2)[C@H](C)CN([C@@H](C)CO)C3=O)cc1`, 14.5 µM. For `C[C@H]1CN([C@@H](C)CO)C(=O)Cc2cc(NC(=O)CCCCCC(=O)Nc3ccccc3N)ccc2O[C@H]1CN(C)Cc1ccccc1` the value was 13.8 µM; for `C[C@@H]1CN([C@@H](C)CO)C(=O)c2cc(NS(=O)(=O)c3ccc(Cl)cc3)ccc2O[C@H]1CN(C)C(=O)Nc1cccc2ccccc12`, 14.6 µM. For `C[C@H]1CN([C@@H](C)CO)C(=O)Cc2cc(NC(=O)Nc3cccc4ccccc34)ccc2O[C@H]1CN(C)Cc1ccc(C(=O)Nc2ccccc2N)cc1` the value was 9.64 µM.

Source of the values: PubChem BioAssay AID743336 (Broad Institute, 2014).
